pIC50: −log10 of the molar value. ≈ marks a conversion by molar mass, not a printed value.
How the values were obtained:
Isocitrate lyase = Isocitrate lyase (Candida albicans, UniProt Q9P8Q7); assay: Inhibition of candida albicans isocitrate lyase
Candida albicans = assay: Antifungal activity against candida albicans ATCC 10231; type: functional, organism-based
Staphylococcus aureus = assay: Antibacterial activity against Staphylococcus aureus ATCC 6538; type: functional
Bacillus subtilis = assay: Antibacterial activity against Bacillus subtilis ATCC 6633; type: functional
Micrococcus luteus = assay: Antibacterial activity against Micrococcus luteus IFC12708; type: functional
Proteus vulgaris = assay: Antibacterial activity against Proteus vulgaris ATCC 3851; type: functional
Salmonella typhimurium = assay: Antibacterial activity against Salmonella Typhimurium ATCC 14028; type: functional, Salmonella enterica subsp. enterica serovar Typhimurium; details: Salmonella enterica
Escherichia coli = assay: Antibacterial activity against Escherichia coli ATCC 11775; type: functional

Sequence of Isocitrate lyase (Q9P8Q7 whole entry): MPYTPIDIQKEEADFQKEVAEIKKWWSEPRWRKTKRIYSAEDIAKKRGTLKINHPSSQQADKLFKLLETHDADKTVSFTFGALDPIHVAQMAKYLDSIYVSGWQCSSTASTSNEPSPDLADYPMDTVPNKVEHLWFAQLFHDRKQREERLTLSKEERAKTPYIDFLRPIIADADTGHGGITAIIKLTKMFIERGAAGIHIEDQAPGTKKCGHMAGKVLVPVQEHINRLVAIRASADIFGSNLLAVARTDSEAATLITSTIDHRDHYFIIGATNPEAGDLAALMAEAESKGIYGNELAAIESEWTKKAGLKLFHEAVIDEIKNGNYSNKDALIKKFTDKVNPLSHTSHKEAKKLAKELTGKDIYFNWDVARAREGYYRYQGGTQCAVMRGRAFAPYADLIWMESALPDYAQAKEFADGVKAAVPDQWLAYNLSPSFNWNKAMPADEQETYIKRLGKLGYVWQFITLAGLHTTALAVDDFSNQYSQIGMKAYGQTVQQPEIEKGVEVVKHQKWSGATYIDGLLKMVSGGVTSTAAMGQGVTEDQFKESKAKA

Row | Structure (SMILES) | pIC50 (Isocitrate lyase) | pIC50 (Candida albicans) | MIC (Staphylococcus aureus) [µg/mL] | MIC (Bacillus subtilis) [µg/mL] | MIC (Micrococcus luteus) [µg/mL] | MIC (Proteus vulgaris) [µg/mL] | MIC (Salmonella typhimurium) [µg/mL] | MIC (Escherichia coli) [µg/mL]
1 | CC1=CC[C@H]2C(C)(C)CCC[C@]2(C)[C@H]1C[C@@H](OS(=O)(=O)O)[C@H](C)CCC/C(C)=C/Cc1cc(O)ccc1O.CN(C)C(=N)N | 3.80 | 3.80 | 50 | 6.25 | > 100 | 12.5 | 50 | > 100
2 | O=C(O)CC[N+](=O)[O-] | 4.29 | 3.07 | – | – | – | – | – | –
3 | CN(C)C(=N)N.C[C@@H]1CCC2=C(CCCC2(C)C)[C@@]1(C)CC[C@H](CCCc1ccoc1)COS(=O)(=O)O | 4.47 | 3.73 | 50 | 6.25 | 50 | 12.5 | > 100 | > 100
4 | CC1=CCC[C@@H](C)[C@]1(C)CC/C(C)=C/CCC(CCCc1ccoc1)COS(=O)(=O)O.CN(C)C(=N)N (stereo not given in full) | 3.73 | 3.73 | > 100 | 6.25 | > 100 | 25 | > 100 | > 100
5 | CC1=CC[C@H]2C(C)(C)CCC[C@]2(C)[C@H]1C/C=C(\C)CCC/C(C)=C/Cc1cc(O)ccc1O | 4.11 | 3.65 | 100 (≈ 222 µM) | 3.25 (≈ 7.21 µM) | 25 (≈ 55.5 µM) | 6.25 (≈ 13.9 µM) | 25 (≈ 55.5 µM) | > 100
6 | C=C1CC[C@H]2C(C)(C)CCC[C@]2(C)[C@H]1C[C@@H](OS(=O)(=O)[O-])[C@H](C)CCC/C(C)=C/Cc1cc(O)ccc1O.[Na+] | 4.15 | 3.88 | 25 | 1.56 | 50 | 6.25 | 50 | > 100
7 | C=C1CCC[C@@H]2[C@@](C)(CC[C@H](CCCc3ccoc3)COS(=O)(=O)O)[C@H](C)CC[C@]12C.CN(C)C(=N)N | 4.50 | 3.73 | 50 | 12.5 | 25 | 6.25 | 25 | > 100
8 | C[C@@H]1[C@H](O)[C@@H](C)/C=C/C=C/C=C/C=C/C=C/C=C/C=C/[C@H](O[C@@H]2O[C@H](C)[C@@H](O)[C@H](N)[C@@H]2O)C[C@@H]2O[C@](O)(C[C@@H](O)C[C@@H](O)[C@H](O)CC[C@@H](O)C[C@@H](O)CC(=O)O[C@H]1C)C[C@H](O)[C@H]2C(=O)O [AMPHOTERICIN B] | – | 5.77 | – | – | – | – | – | –
9 | CC1(C)S[C@@H]2[C@H](NC(=O)[C@H](N)c3ccccc3)C(=O)N2[C@H]1C(=O)O [AMPICILLIN] | – | – | 3.12 (≈ 8.93 µM) | 1.56 (≈ 4.46 µM) | 1.56 (≈ 4.46 µM) | 1.56 (≈ 4.46 µM) | 1.56 (≈ 4.46 µM) | 6.25 (≈ 17.9 µM)
10 | CC1=CC[C@H]2C(C)(C)CCC[C@]2(C)[C@H]1C[C@@H](OS(=O)(=O)[O-])[C@H](C)CCC/C(C)=C/Cc1cc(O)ccc1O.[Na+] [HALISULFATE 1] | 4.15 | 3.88 | 25 | 1.56 | 50 | 6.25 | 50 | > 100
